Data from patent publication US20170327556A1, “CARTILAGE-BINDING FUSION PROTEINS” (Merrimack Pharmaceuticals, Inc., priority 2013, published 2017).

Columns and labels:
[1] = ELISA binding of fusion proteins to heparan sulfate coated plates; details: 6x-Histidine-tagged proteins, FIG. 1A
Protocol: (§1) The specificity of binding of fusion proteins to the polysaccharides heparan sulfate and chondroitin sulfate may be determined by measuring the ability of the proteins to bind polysaccharides coated on an ELISA plate. Heparin Binding Plates (BD Biosciences) are coated with 50 μl of 2-10 μg/mL concentration of heparan sulfate or chondroitin sulfate (Sigma-Aldrich®) and incubated overnight at room temperature. Plates are washed with PBS and blocked with 250 μl of 0.2% gelatin in PBS for 1 hour at 37 C. Plates are then washed with PBS and tapped dry. 50 μl of protein in a dilution series is added to the wells and incubated for 2 hours at 37 C. The protein dilution series starts from 100 nM and includes ten additional three-fold dilutions in PBS, 0.2% gelatin and one blank (PBS, 0.2% gelatin only). After the plates are washed in PBS, 50 μl of anti-human IGF-1 (Abcam) at 1:250 in PBST is added and the plates are incubated for 1 hour rotating at room temperature. Plates are washed with PBST and 100 μl of 1:1000 anti-Rabbit-HRP (Cell Signaling Technology®) in PBST is added to each well and the plate is incubated for 1 hour at room temperature. […] The absorbance is measured at 450 nm and the resulting data is analyzed using GraphPad Prism® (GraphPad Software, San Diego, Calif.). […]

[2] = test system: BXPC-3 cells; experiment: Stimulation of AKT phosphorylation in BXPC-3 cells (pAKT ELISA); type: cell-based; details: 10 min stimulation, doses in M (Table 4), 6x-Histidine-tagged fusion proteins
Protocol: (§2) Fusion proteins comprising IGF-1 and a cartilage matrix binding domain were prepared as described above. Six fusion proteins were prepared: GF-Fus1 (6x-Histidine-tagged), GF-Fus2(6x-Histidine-tagged), GF-Fus3 (6x-Histidine-tagged), GF-Fus4 (6x-Histidine-tagged), GF-Fus5 (6x-Histidine-tagged), and GF-Fus6 (6x-Histidine-tagged). In order to ensure that the growth factor portion of the fusion protein was active in the fusion proteins, each construct was tested for its ability to stimulate AKT phosphorylation. Wild-type IGF-1 (wtIGF) was included as a control. Bovine chondrocytes were stimulated with a range of doses of each fusion protein, and pAKT levels were measured by ELISA.
For ligand stimulation, chondrocytes were seeded at 200,000 cells/well into 96-well tissue culture plates with 100 μL of chondrocyte culture medium with fetal bovine serum (10% v/v, Life Technologies Cat#16140071). Alternatively, BXPC-3 cells, a pancreatic adenocarcinoma cell line (ATCC® CRL-1687™), were seeded at 30,000 cells/well into 96-well tissue culture plates with 100 μL of BXPC-3 medium (RPMI-1640, e.g., ATCC® 30-2001™), with L-glutamine (2 mM), Penicillin-Streptomycin (1×, Gibco® 15140-122), Fetal Bovine Serum (10% v/v, Life Technologies Cat#16140071)). After 24 hrs, both chondrocytes and BXPC-3 cells were rinsed with 100 μL of sterile PBS (pH=7.4) per well and 100 μl of chondrocyte or BXPC-3 culture medium (without fetal bovine serum) was added to the corresponding cell type. After an additional 24 hrs, cells were stimulated with the doses of fusion proteins set forth in Table 4 by adding 25 μL of fusion protein at a concentration 5 times greater than the concentration listed in Table 4 to the 100 μL of medium already in the wells. After 10 min of stimulation, fusion protein was removed and wells were rinsed in ice cold PBS (pH=7.4). 50 μL/well of cell extraction buffer (Invitrogen cat# FNN0011) was added and incubated with shaking at 4° C. for 30 minutes. Lysates were then frozen at −80° C.
Corning high binding 384 well black ELISA plates (cat#3577) are coated with 30 μL of capture antibody at 4 μg/mL (anti-AKT1 total capture antibody, Upstate, Cat#05-591MG) in PBS (pH=7.4) for 16 hours at room temperature, washed and blocked with […] 2% bovine serum albumin (Sigma Cat# A3294) in PBS (pH=7.4) for 1 hour at room temperature. 20 μL of thawed lysates or recombinant pAKT standards (ten 2-fold serial dilutions of 400 ng recombinant human AKT, active (Upstate, Cat#14-276) in PBS (pH=7.4) containing 50% v/v Cell extraction buffer (Invitrogen Cat#FNN0011), 1% bovine serum albumin (Sigma Cat# A3294), 0.05% Tween20) are applied to the coated plate and incubated for 2 hours at room temperature. After washing 3 times with 100 μL/well of 0.05% Tween-20/PBS (pH=7.4) bound phospho-AKT is detected using Phospho-AKT (Ser473)(587F11)-biotinylated (Cell Signaling, Cat#5102), streptavidin-HRP (R&D Systems Cat# DY998, Part #890803), SuperSignal ELISA PicoChemiluminescent Substrate (Thermo Scientific Cat#37069), using a luminometer to detect light emissions at 425 nm.

[3] = ELISA binding of fusion proteins to chondroitin sulfate coated plates; details: 6x-Histidine-tagged proteins, FIG. 1B
Protocol: as §1

[4] = test system: AKT phosphorylation in bovine chondrocytes; experiment: Stimulation of AKT phosphorylation in primary bovine chondrocytes (pAKT ELISA); type: cell-based; details: 10 min stimulation, doses in M (Table 4), 6x-Histidine-tagged fusion proteins
Protocol: as §2
Bovine chondrocytes are isolated from the femoral chondyles of 2-4 week old bovine calves. Knee joints are mounted by removing all tissue surrounding the femur, removing the femoral head with a bone saw or hack saw, and clamping in a tissue vice. Joints are aseptically opened, removing the patella, tibia and fibula. Using a scalpel, cartilage is sliced off the femoral chondyles and placed in sterile PBS (pH=7.4) containing penicillin-streptomycin (1×, Gibco 15140-122). PBS is subsequently removed and pronase solution (50 mL per 5 g of tissue), consisting of high glucose DMEM (Life Technologies Cat#11965-092), fetal bovine serum (10% v/v, Life Technologies Cat#16140071), HEPES (100 mM, Gibco 15630-080), non-essential amino acids (1×, Sigma M7145), penicillin-streptomycin (1×, Gibco 15140-122), proline (400 μM, Sigma P5607-256), Protease Type XIV (2 mg/mL, Sigma Cat# P5147), is added for 1 hour with stirring. After rinsing twice with sterile PBS (pH=7.4), collagenase solution (50 mL per 5 g of tissue), consisting of high glucose DMEM (Life Technologies Cat#11965-092), fetal bovine serum (10% v/v, Life Technologies Cat#16140071), HEPES (100 mM, Gibco 15630-080), NEAA(1×, Sigma M7145), Penicillin-Streptomycin (1×, Gibco 15140-122), 0.25 mg/mL Collagenase P (Roche Cat#11 249 002 001), is added for 18 hours with stirring. Cell are strained, washed, and resuspended in chondrocyte culture medium (low glucose DMEM (1× Gibco 11885-084), Penicillin-Streptomycin (1×, Gibco 15140-122), non-essential amino acids (1×, Sigma M7145), and HEPES (100 mM, Gibco 15630-080)) with fetal bovine serum (10% v/v, Life Technologies Cat#16140071).
For ligand stimulation, chondrocytes were seeded at 200,000 cells/well into 96-well tissue culture plates with 100 μL of chondrocyte culture medium with fetal bovine serum (10% v/v, Life Technologies Cat#16140071). […]

[5] = test system: bovine cartilage explants; experiment: In vitro joint disease model (IL-1), explanted bovine cartilage: sGAG loss; type: cell-based; details: 13.3 nM supplied in every medium change, IL-1, relative to Disease control
Excerpt: (§3) Bovine cartilage explants (3 mm diameter, 1.2 mm thick) are harvested from the femoral patellar groove of 2-4 week old bovine calves. Knee joints are mounted by removing all tissue surrounding the femur, removing the femoral head with a bone saw or hack saw, and clamping in a tissue vice. Joints are aseptically opened, removing the patella, tibia and fibula. Using a 3 mm diameter disposable biopsy punch, approximately 80×3 mm diameter full thickness cartilage cores are punched from the femoral-patellar groove. A sterile knife is used to slice the cores at the cartilage-bone interface. Cores are then inserted into 3 mm diameter holes in a 1.2 mm thick sterile stainless steel plate and sliced flush with the plate using sterile razor blades to remove the excess core length, resulting in 3 mm diameter, 1.2 mm thick cartilage explants with the superficial zone cartilage intact.
(§4) Explants are cultured in 96-well plates in 300 μL of medium consisting of low glucose DMEM (1× Gibco 11885-084), Penicillin-Streptomycin (1×, Gibco 15140-122), ascorbic acid (20 μg/mL, Sigma A4403), proline (400 μM, Sigma P5607-256), non-essential amino acids (1×, Sigma M7145), and HEPES (100 mM, Gibco 15630-080). Explants from three animals (n=2-3 per animal) are used in each treatment condition for a total explant number of 8-9 per condition. Medium is changed every 2 days. On days 6 and 10, the medium is supplemented with 5 μCi/mL of ^35S-sodium sulfate (Perkin Elmer NEX041H001MC, 1 mCi).
(§5) Timepoints are taken at day 8 and 12: explant tissue is washed four times for 30 min each (2 hr total) in 1 mM unlabeled sodium sulfate in PBS. Each explant is weighed wet and frozen at −20° C. until digestion. Tissue digestion was performed with Proteinase K (Roche cat #3115879001) and each explant is digested in 1 mL 100 μg/mL Proteinase K in 50 mM Tris-HCL, 1 mM Calcium Chloride pH=8.0 buffer at 60° C. overnight. Measurement of sGAG content and DNA content is performed using standard assay methods such as those described in Hoemann, 2004, Methods in Molecular Medicine: Cartilage and Osteoarthritis. Totowa, N.J.: Humana Press Inc.; p. 127-52. ^35S-sulfate content of the digested cartilage explants was quantified by mixing 20 μL of digest with 250 μL of scintillation fluid (Perkin Elmer cat #1200-439) and counting with a WALLAC 1450 MICROBETA TRILUX scintillation counter.
(§6) Treatments were given at the following concentrations: wtIGF-1 13.3 nM=100 ng/mL (IGF-1 R&D systems 291-G1); GF-Fus1 (6x-Histidine tagged) 13.3 nM=135 ng/mL; GF-Fus2 (6x-Histidine tagged) 13.3 nM=140 ng/mL; and GF-Fus3 (6x-Histidine tagged)13.3 nM=181 ng/mL. All treatments included IL-1 and were given for either 4 days or the entire culture duration. The outcomes measured were ^35S-sulfate incorporation, DNA content, and sGAG content of plug at endpoint, and sGAG released to media for all media changes. Controls were either no treatment (Healthy) or IL-1 alone at 1 ng/mL (Disease).
(§7) FIG. 4 depicts a graph of cartilage matrix loss as measured by the cumulative percentage of total sGAG lost to the culture medium against time (days). Percentage loss is calculated by dividing the cumulative sGAG in the culture medium by the total sGAG present in the medium over the culture period plus the sGAG remaining in the explant at the end of culture. Cartilage matrix loss was reduced by each IGF fusion protein relative to the disease control at a level similar to wild-type IGF. New cartilage matrix synthesis (i.e. sulfated proteoglycan synthesis is measured by ^35S-Sulfate incorporation) during the final 48 hrs of cultures terminated at day 8 and day 12 is shown in FIGS. 5A and 5B, respectively. Cartilage matrix synthesis was increased compared to disease control by all fusion proteins (GF-Fus1, GF-Fus2, and GF-Fus3) and wild-type IGF when the fusion proteins were supplied in every medium change for the entire culture duration of 8 and 12 days (black bars). […]

[6] = test system: bovine cartilage explants; experiment: In vitro joint disease model (IL-1), explanted bovine cartilage: ^35S-sulfate incorporation; type: cell-based; details: supplied in every medium change for 8 or 12 days, IL-1, final 48 hrs, versus Disease control
Excerpt: as §3, §4, §5, §6, §7

| binding to heparan sulfate [1] | binding to chondroitin sulfate [3] | Substance | logEC50 Mean [2] | logEC50 Mean [4] | cartilage matrix loss (% sGAG loss) [5] | cartilage matrix synthesis (^35S-sulfate incorporation) [6] |
| --- | --- | --- | --- | --- | --- | --- |
| did not bind | did not bind | GF-Fus4: IGF-1(LR3) fused to Collagen IX HB domain | −9.133 | – | – | – |
| – | – | GF-Fus2: N-terminal Prelp HB domain fused to wild-type IGF | – | −8.830 | reduced | increased |
